Laboratory results as given in US9855277B2, “Use of 5H-dibenz/b,f/azepine-5-carboxamide derivatives for treating fibromyalgia” (BIAL—PORTELA & CA, S.A., priority 2009, dated 2018).

Experiments:
[1] = test system: patients with partial epilepsy; assay: MADRS, open label extension of phase 3 study, Trial 1; format: in vivo, human
Protocol: During an open label extension of a phase 3 study with ESL, the effect on depressive symptoms in patients taking at least one other anti-epileptic drug was assessed using the Montgomery Åsberg Depression Rating Scale (MADRS) at the end of treatment (after one year or after early discontinuation) and results compared with those at baseline. Patients were treated with ESL dosages in the range of 400-1500 mg, the majority being treated once daily with 800 mg ESL.

[2] = test system: dorsal horn neurones of CCI mice; assay: Spontaneous activity of dorsal horn neurones in CCI mice (extracellular recording); format: in vivo; conditions: ESL 100 mg/kg i.p.; for spontaneous activity of dorsal horn neurones, firing rate: 5 preparations
From the text: Adult male BL CB F1 mice, weighing 25-30 g at the time of surgery and 26-38 g at the time of electrophysiological experiments, were used. The baseline paw withdrawal threshold (PWT) was examined using a series of graduated von Frey hairs (see below) on 3 consecutive days before surgery and re-assessed on the 7th and on the 14th days after surgery, before electrophysiological recording. The animals were killed by an overdose of pentobarbitone on completion of the study. The chronic constriction injury (CCI) model was prepared following the standard protocols described previously (Bennett and Xie, 1988). Mice were anaesthetised and the lateral side of the left thigh was shaved and sterilized with 75% ethanol. A small incision of approximately 0.5 cm was made parallel to the femur. The muscle was carefully separated to expose the sciatic nerve. Three loose ligatures were placed on the sciatic nerve with 5-0 suture silk thread at approximately 1 mm intervals. The wound was closed in layers with suture silk 4-0 and the animals were placed in a recovery chamber with the temperature controlled and set at 30° C. A dose of amoxicillin (0.02 mL, 3 mg) was routinely injected i.p. after surgery to prevent infection. The animals were returned to their home cages after complete recovery of consciousness and freedom of movement. For the first 2 days after surgery, the animals were closely monitored at least twice daily and subsequently, at least once daily until compound testing. The baseline PWT was tested for 3 consecutive days before surgery and re-assessed on the 7th and 14th days after surgery to monitor the development of mechanical allodynia. Only those mice showing significant mechanical allodynia (PWT≦0.2 g) were selected for subsequent electrophysiological experiments. After behavioural validation, the mice were re-anaesthetised, body temperature was monitored and controlled within a physiological range via a thermo-blanket system, and the electrocardiogram (ECG) was routinely monitored through a pair of stainless steel needles inserted into the left fore-paw and right hind-paw. A laminectomy was carried out to expose the L2-L6 segments of the spinal cord. In some experiments, spinalisation at the C2-C3 level or section of the L4-L6 dorsal roots of the left side at a site near the root entry zone to the spinal cord, was performed. A protective pool was formed and filled with warm mineral oil to cover the spinal cord and the sectioned roots. Extracellular unitary recordings of spontaneous activity from the spinal dorsal horn neurones were achieved by using a carbon microelectrode driven by an electrode manipulator. The electrical signals were recorded through a CED micro-1401 interface to a PC for later off-line analysis. Recording from a dorsal horn neurone displaying spontaneous electrical discharge was undertaken for a period of at least 10 min for control and 40 min after either vehicle or ESL administration. The suspension was prepared with a vehicle containing 30% DMSO in 0.9% sodium chloride to a dose concentration of 50 mg/mL. The vehicle and ESL were injected intraperitoneally at a volume of 2 mL/kg through a needle connected with a 1 mL syringe placed prior to the experiment. Each animal received only one treatment of either vehicle or ESL (100 mg/kg). Spontaneous activity was counted as firing rate per minute. An average firing rate over 5 min periods, recorded consecutively immediately prior to vehicle injection or ESL was used as control (and standardized as 100%). The average firing rate over a 5 min period recorded 30-35 min after vehicle or ESL injection was used to quantify firing rate following treatment and compared with the control level. Due to the high level of variation in frequency of spontaneous ectopic discharge from preparation to preparation; all data were standardized relative to control. All data were expressed as mean±SEM. A paired Student's t-test (two-way) was used to compare different time points in the same group. […]

For CC(=O)O[C@H]1Cc2ccccc2N(C(N)=O)c2ccccc21 [ESL, S-(−)-10-acetoxy-10,11-dihydro-5H-dibenz/b,f/azepine-5-carboxamide], the “MADRS total score at end of treatment” value ([1]; ITT population (166 patients), baseline 10.5, ESL 400-1500 mg, mostly 800 mg once daily, one year or early discontinuation, p<0.05) was 7.8, the “depressive symptoms (MADRS), change from baseline” value ([1]; long-term open-label adjunctive therapy, partial epilepsy) was “Statistically and clinically significant improvement from baseline” and the “spontaneous activity, % of control” value ([2]; dorsal root (L4-L6) sectioned CCI mice, 30-35 min, P<0.01 vs vehicle) was 29.5±13.3 % of control. The “spontaneous activity of dorsal horn neurones, average firing rate” value ([2]; dorsal root (L4-L6) sectioned CCI mice, 30-35 min, control 378.1±85.4, 8 preparations) was 97.5±39.0 imps/min, the “spontaneous activity, % of control level” value ([2]; intact CCI mice, 30-35 min, P<0.01 vs control) was 26.3±10.1 % of control and the “spontaneous activity of dorsal horn neurones, firing rate” value ([2]; intact CCI mice, 30-35 min after injection, control 780.7±462.5) was 113.6±43.9 imps/min. For the same molecule, the “spontaneous activity, % of control levels” value ([2]; spinalised (C2-C3) CCI mice, 30-35 min, P<0.001) was 14.8±6.8 % of control and the “spontaneous activity of dorsal horn neurones, firing rate” value ([2]; spinalised (C2-C3) CCI mice, 30-35 min, control 504.5±286.1, P>0.05) was 31.2±12.7 imps/min.
